Laboratory results from ChEMBL document CHEMBL3507680, “University of Dundee, Gates Library screen for HepG2 cell viability”.

Test: Human HepG2 cell viability assay in 384 well format
Format: toxicity, cell-based
Design: dose 125 nL, time 70.5 hour; cytotoxicity at 70.5 h: concentration not given beside the values
Conditions: HepG2 cells, read-out: Inhibition

| Compound | cytotoxicity at 70.5 h |
| --- | --- |
| Cc1ccc(Cl)cc1N1CCC(CNC(=O)CCn2ccnc2)C1 (stereo not given) | -10.1% |
| N#Cc1cnc2ccccc2c1N1CCNCC1 | -1.59% |
| CC(C)Cc1cc(C(=O)NC(C)C)[nH]n1 | -4.46% |
| Cc1nnc(C2CCN(c3ccccc3)CC2)o1 | -9.47% |
| O=C(c1ccc(C(F)(F)F)cc1)N1C[C@@H](CN2CCCCC2)[C@@H](CO)C1 | 3.19% |
| Cc1nn(C)c2nc(N3CCCC3c3nccs3)sc12 (stereo not given) | -12.1% |
| Cc1cccc(C)c1OCC(=O)Nc1cccn(C)c1=O | -4.44% |
| Cn1cc(C(=O)N2CC[C@@]3(O)CCN(C(=O)C4CCC4)C[C@H]3C2)cn1 | 3.54% |
| Cn1cc(N2C[C@@H]3CN(Cc4ccccn4)C[C@@H]3C2=O)cn1 | 24.4% |
| Cc1nc(C)c(C(=O)N2CCc3nc4c(C)csc4c(=O)n3CC2)s1 | 0.911% |
| COc1ccc2c(c1)CCCN(C(C)C(=O)N1CCCC1)C2 (stereo not given) | -3.36% |
| CC(C)Sc1ncccc1C(=O)NCc1ccc(O)cc1 | -2.85% |
| CC(=O)N1CCCC(c2ccc(C(N)=O)cn2)C1 (stereo not given) | -8.88% |
| CCc1ncc2c(n1)CN(C(C(N)=O)c1ccccc1)CC2 (stereo not given) | -3.45% |
| O=C1NC[C@H]2CN(C3CCOCC3)CCN12 | -4.38% |
| CC(C)Sc1nnnn1C1CCCC1 | -9.93% |
| CN(C)CCN(Cc1ccc(F)cc1)C(=O)c1ccn(C)c(=O)c1 | -5.2% |
| c1cc(COC[C@@]23CCC[C@@H]2CN(C2CCOCC2)C3)ccn1 | -2.91% |
| CCc1ccc(C(=O)O)cc1S(=O)(=O)Nc1ccc(F)c(C#N)c1 | 6.85% |
| CC(=O)N1CCC(N[C@@H]2CO[C@H](CNC(=O)c3cccs3)[C@H]2O)CC1 | 4.51% |
| COc1ccc(C(=O)NCCNC(=O)c2scnc2Cl)cc1 | -2.78% |
| CN(CCO)Cc1nnc(C2CCN(C(=O)c3cccnc3)CC2)n1C | -10.6% |
| CC(=O)NCC(=O)N1CCc2nc(-c3ccccc3)nc(C)c2CC1 | -5.16% |
| O=C(CN1C(=O)CCC1=O)N1CCC(CSCc2ccco2)CC1 | -4.52% |
| O=C(C1CCOCC1)N1CCO[C@H]2[C@@H](OCc3ccncc3)CC[C@@H]21 | -4.02% |
| Fc1ccc(CN2C[C@@H]3OCCN(CC4CCCO4)[C@@H]3C2)cc1 (stereo not given in full) | 11% |
| CN1C(=O)c2cccc(NC(=O)c3ccc4c(c3)OCCO4)c2C1=O | 21.1% |

| Compound | cytotoxicity at 70.5 h |
| --- | --- |
| O=C(CN1CCC(c2cccc(F)c2)C1)NCC(F)(F)F (stereo not given) | 26.9% |
| O=C(c1cccc2ncccc12)N1CCCN(c2cccnn2)CC1 | -11.1% |
| CCc1ccc(C(=O)N2CC[C@](C)(O)[C@H](C)C2)[nH]1 | -7.19% |
| NC(CC1CCCCC1)c1ccccc1 (stereo not given) | 5.79% |
| NC(=O)[C@@H]1CCCN1C(=O)c1csc(-c2ccc(C(F)(F)F)cc2)n1 | 20.6% |
| CCc1nc(CC(=O)N2CCCC2Cn2cccn2)cs1 (stereo not given) | 2.11% |
| Cc1nc(CN2C(=O)CCC23CCN(c2ncccn2)CC3)cs1 | -8.07% |
| COc1ccc2nnc(CCCC(=O)NCCC3=CCCCC3)n2n1 | -4.24% |
| CN(C)C(=O)CO[C@H]1CN(Cc2ccc3c(c2)OCO3)[C@@H]2COC[C@H]12 | -4.69% |
| Cc1cc(C)n(CC(=O)N2CCC(c3ccn4nccc4n3)CC2)n1 | 26.6% |
| COc1ccc(CNC(=O)c2cc3c(nc2O)CCC(C)C3)cc1 (stereo not given) | -8.97% |
| CCC(C)(O)CNC(=O)Nc1ccc(C)cc1Br (stereo not given) | -5.82% |
| Cc1ccc(C(=O)N2CCc3ncc(Cn4cccn4)n3CC2)o1 | -3.58% |
| CNC(=O)[C@@H]1C[C@@H](NC(=O)CSc2ccccc2)CN1C1CCOCC1 | 14.1% |
| CC1=Nc2c(c(=O)[nH]n2C(C)C)C(c2cccs2)S1 (stereo not given) | -8.68% |
| CCn1ncc2c1NC(=O)C(C#N)C21CCCC1 (stereo not given) | -11.6% |
| CC(C)N1CCC(Cc2cncc(-c3ccccc3C(=O)O)n2)CC1 | -17.6% |
| Cn1c(=O)c2cc(C(=O)NCCOCC(F)(F)F)ccc2n(C)c1=O | 25.9% |
| O=C1CCC2(CCN(c3ncc(F)cn3)CC2)N1CCN1CCCC1 | 25.9% |
| COc1ccc(NC(=O)c2ccco2)c(N2CCN(C(C)=O)CC2)n1 | -11.7% |
| CC(C)N(CC(N)=O)Cc1csc(C(C)(C)C)n1 | 3.87% |
| CCN1CCN(C(=O)c2cn(Cc3ccccc3)c3ncccc23)CC1 | -0.985% |
| Cc1nc([C@@H]2C[C@@H]3CCN(C(=O)Cc4cccs4)C[C@H]3O2)no1 | -11.4% |
| O=C(COCCc1ccccc1)N1CCCC(n2cccn2)C1 (stereo not given) | -6.79% |
| O=c1oc(-c2ccc(F)cc2)nn1CN1CCSCC1 | -15% |
| c1cncc(-c2noc(CNC3CCCN(c4cccnn4)C3)n2)c1 (stereo not given) | 24.9% |
| CN(C)C(=O)CN1CCN(C(=O)c2cnn(-c3ccccc3Cl)c2)CC1 | -13.6% |

| Compound | cytotoxicity at 70.5 h |
| --- | --- |
| COc1ccc(OC)c(C(C)Nc2nc3c(C)nn(C)c3c(=O)n2C)c1 (stereo not given) | 12.4% |
| Cc1ccc(S(=O)(=O)N2CCN(C)C3(CCC(=O)N(C)CC3)C2)s1 (stereo not given) | -5.58% |
| O=C(Nc1cccc(N2CCN(CC3CC3)CC2)c1)C1CCCO1 (stereo not given) | 17% |
| CCN(CC)Cc1cn2c(n1)CN(C(=O)c1cnccn1)CC2 | -13.4% |
| COCCN(Cc1coc(-c2cccc(Cl)c2)n1)C1CC1 | -4.43% |
| Cc1cc(NCC2CCN(c3ccccc3)C2)n2ncnc2n1 (stereo not given) | -1.33% |
| CC1c2ncc(Cn3cncn3)n2CCN1C(=O)c1ccccn1 (stereo not given) | 31.8% |
| Cc1nc(C)n(CC2CCCCN2CCOc2cccc(C#N)c2)n1 (stereo not given) | -7.98% |
| O=C(NC1CC1)N1CC[C@H]2[C@H]1CCN2c1ncccn1 | -6.35% |
| Cc1nc(C)n(CC2CCCN(c3ncnc4ccsc34)C2)n1 (stereo not given) | 26.2% |
| Cc1cc(NC(=O)NCC(C)O)n(C)n1 (stereo not given) | 0.0779% |
| c1cncc(CO[C@H]2CC[C@H]3[C@@H]2OCCN3C2CCOCC2)c1 | -2.22% |
| Cc1ccc(C(=O)N2CCN(Cc3ccc(C#N)cc3)CC2)n1C | -2.38% |
| CC(C)S(=O)(=O)N1C[C@@H](O)[C@H](N(C)Cc2ccc(F)cc2)C1 | 0.65% |
| CCn1ncc2c1C(COC)CN(Cc1nccs1)C2 (stereo not given) | 30.6% |
| CCN(CC)[C@@H]1CN(C(=O)c2ccc(C#N)cc2)[C@@H]2CCCO[C@H]12 | -4.73% |
| NCc1cc(-c2ccccc2)n2nccc2n1 | -10.1% |
| Cc1nc(C)n(CC2CCCN(CCC(=O)N3CCCCC3)C2)n1 (stereo not given) | -1.55% |
| CC(=O)N1CCCCCC1C1CCN(Cc2nc(C3CC3)no2)CC1 (stereo not given) | 0.683% |
| O=C(NCCc1cc(N2CCOCC2)nc(NC2CC2)n1)C1CC1 | -14% |
| NC(=O)c1ccc(C(=O)N2CCCCC2C2OCCO2)cc1 (stereo not given) | -10.6% |
| CC(C)Oc1cccc2c1c(NC(=O)CN(C)C)nn2CC(F)(F)F | -8.54% |
| Cc1ccc(C(NC(=O)Cn2cc(C3CC3)nn2)C2CC2)cc1 (stereo not given) | -7.56% |
| Cc1cc2nc(CO[C@H]3CN(C)C[C@H]3F)[nH]c2cc1C | -0.513% |
| CCn1cc(S(=O)(=O)NCC(c2ccccc2)N2CCOCC2)c(C)n1 (stereo not given) | 18.1% |
| CC(C)NC(=O)CC1CC2(CCN(CC3CC3)CC2)Oc2ccccc21 (stereo not given) | 15.7% |
